Activity calls are given as the source filed them. The rule behind the calls is not given here.
Legend:
[1] = Toxicity in female Balb/c mouse assessed as effect on creatine kinase level at 50 mg/kg, ip administered every other day for 7 times; type: organism-based; details: in vivo
[2] = test system: MDA-MB-231; test: Inhibition of epithelial to mesenchymal transition in human MDA-MB-231 cells assessed as downregulation of N-cadherin protein expression by Western blotting analysis; type: functional, cell-based; details: dose 0-32 µM
[3] = test system: MDA-MB-231; test: Inhibition of cell invasion in human MDA-MB-231 cells assessed as reduction in number of invasive cells at 4 to 32 uM incubated for 24 hrs by phase contrast microscopy Transwell assay; type: functional, cell-based; details: dose 4-32 µM
[4] = test system: MDA-MB-231; test: Induction of LSD1 degradation in human MDA-MB-231 cells at 4 to 32 uM in presence of MG132 by Western blot analysis; type: cell-based; details: dose 4-32 µM
[5] = test system: MDA-MB-231; test: (§1) Antimetastatic activity against human MDA-MB-231 cells expressing luciferase xenografted in female Balb/c nude mouse assessed as reduction in number of metastatic nodules in the lung at 12 mg/kg, ip administered every 3 days and measured after 30 days by H and E staining based histopathological analysis relative to control; type: functional; design: scale not given: the % may be the effect or the level left; details: time 30 day
[6] = organism: Homo sapiens; test: Effect on LSD1/CoREST/HDAC1/HDAC2 (unknown origin) complex by coimmunoprecipitation analysis
[7] = test system: MDA-MB-231; test: Effect on H3K4me2 protein expression in LSD1 knockout human MDA-MB-231 cells at 16 uM by Western blot analysis; type: functional, cell-based
[8] = test system: MDA-MB-231; test: Induction of RBMS3 promoter transcriptional activity in human MDA-MB-231 cells by luciferase reporter gene assay; type: functional, cell-based
[9] = Toxicity in female Balb/c mouse assessed as effect on creatinine level at 50 mg/kg, ip administered every other day for 7 times; type: organism-based; details: in vivo
[10] = test system: MDA-MB-231; test: Upregulation of RBMS3 promoter level in human MDA-MB-231 cells by chromatin immunoprecipitation assay; type: functional, cell-based
[11] = test system: MDA-MB-231; test: Effect on CD86 protein expression in LSD1 knockout human MDA-MB-231 cells at 16 uM by Western blot analysis; type: functional, cell-based
[12] = test system: MDA-MB-231; test: Inhibition of MMP2 production in human MDA-MB-231 cells by Western blotting analysis; type: functional, cell-based; details: dose 0-32 µM
[13] = organism: Homo sapiens; test: Binding affinity to recombinant LSD1 Ser817A mutant (unknown origin) by MST assay
[14] = Toxicity in female Balb/c nude mouse xenografted with human MDA-MB-231 cells expressing luciferase assessed as abnormalities kidney at 12 to 50 mg/kg, ip administered every 3 days and measured after 30 days by H and E staining based analysis; type: organism-based; details: in vivo, 720 h, dose 12-50 mg/kg, time 30 day
[15] = test system: MDA-MB-231; test: Effect on LSD1 nuclear localization in human MDA-MB-231 cells transfected with LSD1 fluorescence antibody by fluorescence based analysis; type: functional, cell-based
[16] = Toxicity in female Balb/c mouse assessed as effect on RBC level at 50 mg/kg, ip administered every other day for 7 times; type: organism-based; details: in vivo
[17] = test system: MDA-MB-231; test: Antimetastatic activity against human MDA-MB-231-Luc cells xenografted in female Balb/c nude mouse assessed as smaller metastatic nodules in lung at 12 to 50 mg/kg, ip administered every 3 days and measured after 30 days by H and E staining based analysis; type: functional, organism-based; details: dose 12-50 mg/kg, time 30.0 day
[18] = test system: MDA-MB-231; test: Cytotoxicity against human MDA-MB-231 cells assessed as cell viability at 0 to 100 uM incubated for 24 hrs by MTT assay; type: functional; details: dose 0-100 µM
[19] = Toxicity in female Balb/c mouse assessed as effect on lymphocyte level at 50 mg/kg, ip administered every other day for 7 times; type: organism-based; details: in vivo
[20] = Retention time of the compound by HPLC-MS/MS analysis; type: physicochemical
[21] = Toxicity in female Balb/c mouse assessed as effect on BUN level at 50 mg/kg, ip administered every other day for 7 times; type: organism-based; details: in vivo
[22] = test system: MDA-MB-231; test: Inhibition of epithelial to mesenchymal transition in human MDA-MB-231 cells assessed as upregulation of E-cadherin protein expression by Western blotting analysis; type: functional, cell-based; details: dose 0-32 µM
[23] = Toxicity in female Balb/c mouse assessed as histological changes in liver at 50 mg/kg, ip administered every other day for 7 times by H and E staining based analysis; type: organism-based; details: in vivo
[24] = Toxicity in female Balb/c nude mouse xenografted with human MDA-MB-231 cells expressing luciferase assessed as abnormalities heart at 12 to 50 mg/kg, ip administered every 3 days and measured after 30 days by H and E staining based analysis; type: organism-based; details: in vivo, 720 h, dose 12-50 mg/kg, time 30 day
[25] = test system: MDA-MB-231; test: Inhibition of cell invasion in LSD1 knockout human MDA-MB-231 cells at 16 uM incubated for 24 hrs by phase contract microscopy based transwell assay; type: functional
[26] = Tmax in male Sprague-Dawley rat at 10 mg/kg, ip measured at 0 to 1440 mins by LC-MS/MS analysis; type: ADME, organism-based; details: in vivo, time 0-1440 min
[27] = test system: MDA-MB-231; test: Antitumor activity against human MDA-MB-231 cells expressing luciferase xenografted in female Balb/c nude mouse assessed as increase in body weight at 12 to 50 mg/kg, ip administered every 3 days and measured after 33 days; type: functional, organism-based; details: dose 12-50 mg/kg, time 33.0 day
[28] = Acute toxicity in female ICR mouse assessed as lethal dose administered intraperitoneally for 14 days; details: in vivo, route ip, time 14 day
[29] = test system: MDA-MB-231; test: as §1, with “25” for “12”; type: functional; design: scale not given: the % may be the effect or the level left; details: time 30 day
[30] = Toxicity in female Balb/c nude mouse xenografted with human MDA-MB-231 cells expressing luciferase assessed as appearance of liver lesions at 12 to 50 mg/kg, ip administered every 3 days and measured after 30 days by H and E staining based analysis; type: organism-based; details: in vivo, 720 h, dose 12-50 mg/kg, time 30 day
[31] = test system: MDA-MB-231; test: Effect on N-cadherin protein expression in LSD1 knockout human MDA-MB-231 cells at 16 uM by Western blot analysis; type: functional, cell-based
[32] = Toxicity in female Balb/c mouse assessed as histological changes in lung at 50 mg/kg, ip administered every other day for 7 times by H and E staining based analysis; type: organism-based; details: in vivo
[33] = Toxicity in female Balb/c mouse assessed as effect on granulocyte level at 50 mg/kg, ip administered every other day for 7 times; type: organism-based; details: in vivo
[34] = target: T1, Lysine-specific histone demethylase 1A (Homo sapiens, UniProt O60341); test: Inhibition of LSD1 (unknown origin) activity measured after 80-fold dilution by dilution assay
[35] = test system: MDA-MB-231; test: Inhibition of cell migration in LSD1 knockout human MDA-MB-231 cells at 16 uM incubated for 24 hrs by phase-contrast microscopy based wound healing assay; type: functional
[36] = Toxicity in female Balb/c nude mouse xenografted with human MDA-MB-231 cells expressing luciferase assessed as appearance of spleen lesions at 12 to 50 mg/kg, ip administered every 3 days and measured after 30 days by H and E staining based analysis; type: organism-based; details: in vivo, 720 h, dose 12-50 mg/kg, time 30 day
[37] = Toxicity in female Balb/c nude mouse xenografted with human MDA-MB-231 cells expressing luciferase assessed as abnormalities liver at 12 to 50 mg/kg, ip administered every 3 days and measured after 30 days by H and E staining based analysis; type: organism-based; details: in vivo, 720 h, dose 12-50 mg/kg, time 30 day
[38] = target: T1, Lysine-specific histone demethylase 1A; test: Binding affinity to LSD1 (unknown origin) assessed as thermal stability preincubated for 30 mins followed by incubation under 37 to 52 degreeC for 5 mins by CETSA; details: time 35.0 min

C[C@@H]1O[C@H](OC[C@H]2O[C@@H](OCCc3ccc(O)c(O)c3)[C@H](O)[C@@H](OC(=O)/C=C/c3ccc(O)c(O)c3)[C@@H]2O)[C@H](O)[C@H](O)[C@H]1O
Activity [1]: Non-toxic | inhibition [2]: Dose-dependent-effect | inhibition [3]: Active | Activity [4]: inactive | Activity [5]: 7.1% | Activity [6]: inactive | Activity [7]: inactive | Activity [8]: Active | Activity [9]: Non-toxic | Activity [10]: Active | Activity [11]: inactive | inhibition [12]: Dose-dependent-effect | Activity [13]: inactive | Activity [14]: Non-toxic | Activity [15]: inactive | Activity [16]: Non-toxic | Activity [17]: Active | Activity [18]: >90% | Activity [19]: Non-toxic | Retention_time [20]: 18.4 min | Activity [21]: Non-toxic | inhibition [22]: Dose-dependent-effect | Activity [23]: Non-toxic | Activity [24]: Non-toxic | inhibition [25]: Active; No Significant Difference With Lsd1 Knockout Control Group | Tmax [26]: 1.33 h | Activity [27]: Active; Slight Increase In Body Weight Observed | LD50 at 336 h [28]: > 600 mg/kg | Activity [29]: 33.3% | Activity [30]: Non-toxic | Activity [31]: inactive | Activity [32]: Non-toxic | Activity [33]: Non-toxic | inhibition [34]: Active; Compound Exerts Inhibition In An Irreversible Manner | inhibition [35]: Active; No Significant Difference With Lsd1 Knockout Control Group | Activity [36]: Non-toxic | Activity [37]: Non-toxic | Activity [38]: Active
